{
  "source": "patent US12660812B2",
  "about": "“Cryoprotecting agent, cryoprotecting and cryopreserved compositions, uses thereof, and methods of cryopreservation” (PHARMACOSMOS HOLDING A/S, priority 2012, dated 2026)",
  "system": "adipose-derived stromal/stem cells (ASC's)",
  "assay": "Viability of adipose-derived stromal/stem cells after cryopreservation, flow cytometry with 7-AAD",
  "assay_type": "cell-based",
  "conditions": "10% DMSO",
  "text": "ASC's were harvested from adipose tissue obtained by cosmetic liposuction of the abdomen or the inner thighs using the Vibrasat device (Möller Medical GmbH & Co. KG, Fulda, Germany). The ASC's from the stromal vascular fraction were expanded ex vivo in culture medium consisting of Dulbecco's modified Eagle's medium, 1% penicillin-streptomycin, 1% GlutaMAX, and 10% pooled human platelet lysate. Cells were frozen in cryoprotective medium containing 10% DMSO or different concentrations of isomaltooligosaccharide 1 (isom) or hydrogenated isomaltooligosaccharide 1 (h-isom). Samples were frozen using a controlled rate freezer (Kryo 560-16, Planer; start temp. 4° C., −1° C./min drop to 0° C., −2° C./min drop to −45° C. and −5° C./min drop to −100° C.) and moved to −150° C. Samples were thawed in a 37° C. water bath. Flow cytometry was applied for phenotype characterization (positive for CD73, CD90, CD105 and negative for CD14, CD20, CD45 and CD34) and to estimate the viability of ASC's. The fluorescent DNA binding compound 7-Aminoactinomycin D (7-AAD) was used as a live/dead marker. Cells able to exclude 7AAD were assumed to be viable. The results are shown in FIG. 11: Isomaltooligosaccharide 1 (light grey bars), hydrogenated isomaltooligosaccharide 1 (dark grey bars) and DMSO (black bars). Data shown here are from a single experiment measured in doublets. […]",
  "data": [
    {"molecule": "C[S+](C)[O-]", "note": "[DMSO, dimethyl sulfoxide]", "values": [
      {"measurement": "Viability of ASCs, result against expectation", "result": "lower than expected"}
    ]}
  ]
}
